Earlier results, collected in patent publication US20110061649A1, “DEVICE AND METHOD FOR TREATING RESPIRATORY AND OTHER DISEASES” (priority 2007, published 2011).
“Also recorded” adds a separate entry of the source. Like-named read-outs stand apart in the source and are kept apart here.

Legend:
[1] = for storage without losing effectiveness / beneficial properties: Weizmann Institute article
[2] = test system: methicillin-resistant staphylococcus aureus; settings: allicin formulated into creams and soap
[3] = test system: vancomycin-resistant enterococci; settings: allicin formulated into creams and soap

| life span ([1]; temperature not stated) | preserved stable ([1]; temperature of 4° Celsius) | level of allicin to which mammals cells proved to be immune (mammals cells) | SMILES | life span ([1]; room temperature) | storage without losing effectiveness / beneficial properties ([1]; listed as natural compound) | blocking of cysteine proteinases (cysteine proteinases) | blocking of cysteine proteinases (cysteine proteinases; listed as Allicin) | blocking of alcohol dehydrogenases (alcohol dehydrogenases) | killing of methicillin-resistant staphylococcus aureus [2] | killing of vancomycin-resistant enterococci [3] | storage without losing effectiveness / beneficial properties [1] |
| --- | --- | --- | --- | --- | --- | --- | --- | --- | --- | --- | --- |
| few hours | stable for months | 50 Mm | C=CCS[S+]([O-])CC=C (centres unmarked) [allicin] | less than an our; also recorded: about an hour | loses its beneficial properties within hours | blocking | Strongly Inhibits | blocking | killing | killing |  |
|  |  |  | C=CCS[S+]([O-])CC=C (centres unmarked) [pure semi-synthetic allicin, allicin] |  |  |  |  |  |  |  | stored for months without losing its effectiveness |
